Common to all, as to test: NCI 60 cell line screen
Common to all, as to type: cell-based

One assay has as its system A498. The note with it: Homo sapiens; A498, Renal Cancer; read-out: Percent growth. The protocol: (§1) Anticancer profiling over a panel of 60 cancer cell lines was carried out at the National Cancer Institute (NCI), Bethesda, Maryland, USA, https://dtp.cancer.gov/discovery_development/nci-60/methodology.htm (Last visit 22 September 2021), using the standard procedure (detailed procedure is located in the Supplementary Information page 50 s).
(§2) NCI standard procedure for 60 cell lines assay
(§3) The human tumor cell lines of the cancer screening panel are grown in RPMI 1640 mediu m containing 5% fetal bovine serum and 2 mM L-glutamine. For a typical screening experiment, cells are inoculated into 96 well microtiter plates in 100 μL at plating densities ranging from 5,000 to 40,000 cells/well depending on the doubling time of individual cell lines. After cell inoculation, the microtiter plates are incubated at 37° C, 5 % CO2, 95 % air and 100 % relative humidity for 24 h prior to addition of experimental drugs.
(§4) After 24 h, two plates of each cell line are fixed in situ with TCA, to represent a measurement of the cell population for each cell line at the time of drug addition (Tz). Experimental drugs are solubilized in dimethyl sulfoxide at 400-fold the desired final maximum test concentration (10 µM) and stored frozen prior to use. At the time of drug addition, an aliquot of frozen concentrate is thawed and diluted to twice the desired final maximum test concentration with co mp lete medium containing 50 μg/ml gentamicin. Additional four, 10-fold or ½ log serial dilutions are made to provide a total of five drug concentrations plus control. Aliquots of 100 μl of these different drug dilutions are added to the appropriate microtiter wells already containing 100 μl of medium, resulting in the required final drug concentrations.
(§5) Following drug addition, the plates are incubated for an additional 48 h at 37°C, 5 % CO2, 95 % air, and 100 % relative humidity. For adherent cells, the assay is terminated by the addition of cold TCA. Cells are fixed in situ by the gentle addition of 50 μl of cold 50 % (w/v) TCA (final concentration, 10 % TCA) and incubated for 60 minutes at 4°C. The supernatant is discarded, and the plates are washed five times with tap water and air dried. Sulforhodamine B (SRB) solution (100 μl) at 0.4 % (w/v) in 1 % acetic acid is added to each well, and plates are incubated for 10 minutes at room temperature. After staining, unbound dye is removed by washing five times with 1 % acetic acid and the plates are air dried. Bound stain is subsequently solubilized with 10 mM trizma base, and the absorbance is read on an automated plate reader at a wavelength of 515 nm. For suspension cells, the methodology is the same except that the assay is terminated by fixing settled cells at the bottom of the wells by g ently adding 50 μl of 80 % TCA (final concentration, 16 % TCA). Using the seven absorbance measurements [time zero, (Tz), control growth, (C), and test growth in the presence of drug at the five concentration levels (Ti)], the percentage growth is calculated at each of the drug concentrations levels. Percentage growth inhibition is calculated as:
(§6) [(Ti-Tz)/(C-Tz)] x 100 for concentrations for which Ti>/=Tz
(§7) [(Ti-Tz)/Tz] x 100 for concentrations for which Ti<Tz.
(§8) Three dose response parameters are calculated for each experimental agent. Growth inhibition of […]
(§9) resulting in a 50% reduction in the net protein increase (as measured by SRB staining) in control cells during the drug incubation. The drug concentration resulting in total growth inhibition […]
(§10) (TGI) is calculated from Ti = Tz.

The test system of a further assay is A549/ATCC. The conditions noted are these: Homo sapiens, Non-Small Cell Lung Cancer, read-out: Percent growth. The protocol:
as §1, §2, §3, §4, §5, §6, §7, §8, §9, §10

The next assay has as its system BT-549. The note with it: Homo sapiens; BT-549, Breast Cancer; read-out: Percent growth. The protocol:
as §1, §2, §3, §4, §5, §6, §7, §8, §9, §10

For another assay, the system named is CCRF-CEM. The conditions noted are these: Homo sapiens, Leukemia, read-out: Percent growth. The protocol:
as §1, §2, §3, §4, §5, §6, §7, §8, §9, §10

A further assay concerns COLO 205. The conditions noted are these: Homo sapiens; COLO 205, Colon Cancer; read-out: Percent growth. The protocol: as §1, §2, §3, §4, §5, §6, §7, §8, §9, §10
The subject of the next assay is DU-145. The note with it: Homo sapiens; DU-145, Prostate Cancer; read-out: Percent growth. The protocol:
as §1, §2, §3, §4, §5, §6, §7, §8, §9, §10

In another assay the test system is HCC-2998. The note with it: Homo sapiens; HCC-2998, Colon Cancer; read-out: Percent growth. The protocol: as §1, §2, §3, §4, §5, §6, §7, §8, §9, §10
Another assay deals with HCT-116. The note with it: Homo sapiens; HCT-116, Colon Cancer; read-out: Percent growth. The protocol: as §1, §2, §3, §4, §5, §6, §7, §8, §9, §10
In a further assay the test system is HL-60(TB). The conditions noted are these: Homo sapiens, Leukemia, read-out: Percent growth. The protocol: as §1, §2, §3, §4, §5, §6, §7, §8, §9, §10
A further assay relates to IGROV1. The note with it: Homo sapiens, IGROV-1; IGROV1, Ovarian Cancer; read-out: Percent growth. The protocol: as §1, §2, §3, §4, §5, §6, §7, §8, §9, §10
The next assay relates to LOX IMVI. The note with it: Homo sapiens, Melanoma, read-out: Percent growth. The protocol:
as §1, §2, §3, §4, §5, §6, §7, §8, §9, §10

For another assay, the system named is MALME-3M. The note with it: Homo sapiens, Melanoma, read-out: Percent growth. The protocol: as §1, §2, §3, §4, §5, §6, §7, §8, §9, §10
The test system of a further assay is MCF7. The note with it: Homo sapiens; MCF7, Breast Cancer; read-out: Percent growth. The protocol:
as §1, §2, §3, §4, §5, §6, §7, §8, §9, §10

For a further assay, the system named is MDA-MB-231/ATCC. The note with it: Homo sapiens, Breast Cancer, read-out: Percent growth. The protocol:
as §1, §2, §3, §4, §5, §6, §7, §8, §9, §10

For a further assay, the system named is MDA-MB-435. The conditions noted are these: Homo sapiens; MDA-MB-435, Melanoma; read-out: Percent growth. The protocol:
as §1, §2, §3, §4, §5, §6, §7, §8, §9, §10

The next assay concerns NCI-H322M. The note with it: Homo sapiens, Non-Small Cell Lung Cancer, read-out: Percent growth. The protocol: as §1, §2, §3, §4, §5, §6, §7, §8, §9, §10
The subject of another assay is OVCAR-3. The conditions noted are these: Homo sapiens; OVCAR-3, Ovarian Cancer; read-out: Percent growth. The protocol:
as §1, §2, §3, §4, §5, §6, §7, §8, §9, §10

A further assay deals with OVCAR-5. The conditions noted are these: Homo sapiens; OVCAR-5, Ovarian Cancer; read-out: Percent growth. The protocol:
as §1, §2, §3, §4, §5, §6, §7, §8, §9, §10

The subject of a further assay is OVCAR-8. The note with it: Homo sapiens; OVCAR-8, Ovarian Cancer; read-out: Percent growth. The protocol:
as §1, §2, §3, §4, §5, §6, §7, §8, §9, §10

For the next assay, the system named is SF-268. The conditions noted are these: Homo sapiens; SF-268, CNS-Cancer; read-out: Percent growth. The protocol: as §1, §2, §3, §4, §5, §6, §7, §8, §9, §10
In the next assay the test system is SF-539. The conditions noted are these: Homo sapiens; SF-539, CNS-Cancer; read-out: Percent growth. The protocol: as §1, §2, §3, §4, §5, §6, §7, §8, §9, §10
The test system of the next assay is SK-OV-3. The conditions noted are these: Homo sapiens; SK-OV-3, Ovarian Cancer; read-out: Percent growth. The protocol:
as §1, §2, §3, §4, §5, §6, §7, §8, §9, §10

Another assay relates to SN12C. The conditions noted are these: Homo sapiens, Renal Cancer, read-out: Percent growth. The protocol:
as §1, §2, §3, §4, §5, §6, §7, §8, §9, §10

These results are taken from PMC8508980, “Design, Synthesis and Anticancer Profile of New 4-(1H-benzo[d]imidazol-1-yl)pyrimidin-2-amine-Linked Sulfonamide Derivatives with V600EBRAF Inhibitory Effect” (International Journal of Molecular Sciences, 2021).

Turning to `Cc1ccc(S(=O)(=O)NCCNc2nccc(-n3cnc4ccccc43)n2)cc1` [12g, N-(2-((4-(1H-benzo [d]imidazol-1-yl)pyrimidin-2-yl)amino)ethyl)-4-methyl benzenesulfonamide], the activity at 10 µM in the assay with A498 was 62.1%; in the assay with A549/ATCC, 82.4%; with BT-549 it was 63.7%; with CCRF-CEM, 69.5%; in the assay with COLO 205, 86.8%; in the assay with DU-145, 89.3%. For the same molecule, the activity at 10 µM with HCC-2998 was 93.1%; in the assay on HCT-116, 64.1%; in the assay with HL-60(TB), 91.2%; with IGROV1, 75.2%; in the assay with LOX IMVI, 75.2%; in the assay with MALME-3M it was 90.2%. For the same molecule, the activity at 10 µM with MCF7 was determined as 67.9%; with MDA-MB-231/ATCC, 62.5%; in the assay with MDA-MB-435, 84.1%; in the assay on NCI-H322M, 94.4%; in the assay on OVCAR-3, 82%; in the assay with OVCAR-5, 87.8%. For the same molecule, the activity at 10 µM in the assay on OVCAR-8 was 79.8%; in the assay with SF-268, 68.8%; in the assay on SF-539, 79.7%; in the assay with SK-OV-3, 79.5%; in the assay with SN12C, 79%.

Turning to `COc1ccc(S(=O)(=O)NCCNc2nccc(-n3cnc4ccccc43)n2)cc1` [12f, N-(2-((4-(1H-benzo [d]imidazol-1-yl)pyrimidin-2-yl)amino)ethyl)-4-methoxy benzenesulfonamide], the activity at 10 µM came to 82.9% with A498; 94.6% in the assay with A549/ATCC; 97.8% in the assay on BT-549; 102% in the assay on CCRF-CEM; 99.8% with COLO 205; 99.9% in the assay on DU-145. Besides, the activity at 10 µM is 99.7% with HCC-2998; 98% in the assay on HCT-116; 106% in the assay on HL-60(TB); 89% in the assay on IGROV1; 91.7% in the assay with LOX IMVI; 91.7% with MALME-3M. Also, the activity at 10 µM in the assay on MCF7 was found to be 86.2%; in the assay with MDA-MB-231/ATCC, 92.1%; in the assay with MDA-MB-435 it was 96.6%; in the assay with NCI-H322M, 92.6%; in the assay on OVCAR-3 it was 103%; in the assay on OVCAR-5, 93.9%. Further, the activity at 10 µM with OVCAR-8 was 91.5%; in the assay with SF-268 it was 86.7%; in the assay on SF-539, 96.2%; with SK-OV-3, 97.5%; in the assay on SN12C it was 88.5%.

`O=S(=O)(NCCCNc1nccc(-n2cnc3ccccc32)n1)c1ccccc1` [12h, N-(3-((4-(1H-benzo [d]imidazol-1-yl)pyrimidin-2-yl)amino)propyl)benzenesulfonamide]: the activity at 10 µM worked out at 78.4% with A498; 97.6% with A549/ATCC; 96.5% with BT-549; 88.1% in the assay on CCRF-CEM; 102% in the assay with COLO 205; 99.2% with DU-145. The activity at 10 µM in the assay on HCC-2998 worked out at 107%; in the assay on HCT-116, 90.3%; with HL-60(TB), 104%; in the assay with IGROV1, 107%; in the assay with LOX IMVI, 91.7%; with MALME-3M, 108%. Moreover, the activity at 10 µM was determined as 87.7% in the assay on MCF7; 92.4% in the assay on MDA-MB-231/ATCC; 95.5% with MDA-MB-435; 109% in the assay on NCI-H322M; 106% in the assay on OVCAR-3; 99.1% in the assay on OVCAR-5. In addition, the activity at 10 µM is 84% in the assay on OVCAR-8; 91.7% in the assay with SF-268; 89.4% in the assay on SF-539; 105% with SK-OV-3; 94.3% in the assay on SN12C.
